Assay results reported in patent publication US20030228572A1, “Method of determining the efficacy of a compound in treating microbial infection” (priority 1998, published 2003).

Key:
[1] = tested on: S. aureus ATCC 29213 (OSSA); assay: Impedance growth curves (detection time, DT) on Mueller-Hinton agar with oxacillin, BACTOMETER M-128; format: cell-based; conditions: for DT (detection time): Mueller-Hinton agar
Procedure: (§1) Mueller-Hinton agar containing different concentrations of oxacillin (0 to 128 μg) was prepared by two-fold serial dilutions, and 0.6 ml of the medium was dispensed into the module wells of […]-128 (bioMerieux Vitek, Hazelwood, Mo.). The three ATCC S. aureus strains were used to observe the effect of oxacillin concentration on the impedance curves during bacterial growth. These strains were subcultured on TSA for 18 to 24 hours (“h”) at 37° C. One single colony on TSA was inoculated into 10 ml of TSB, incubated at 37° C. for several hours, and diluted with 0.1% peptone water to a turbidity of 0.5 McFarland. An aliquot (0.1 ml) of the bacterial suspensions was inoculated into the module well containing Mueller-Hinton agar supplemented with oxacillin. The inoculated modules (each module contains 16 wells) were inserted into the incubator of BACTOMETER set at 37° C. The impedance change in each well was continuously monitored and recorded by the instrument at 6-minute (“min”) intervals for 24 h, and results were obtained graphically as impedance growth curves. DT in hours for each well was automatically determined by the instrument software when three consecutive readings of impedance change exceeded the default value in the instrument, or was manually determined by locating the inflection point (where an accelerating change of impedance was evident) on the impedance curve.

[2] = tested on: S. aureus ATCC 33591 (ORSA); assay: as above; format: cell-based; conditions: for DT (detection time): Mueller-Hinton agar, without oxacillin 5.3 h
Procedure: as §1

[3] = tested on: S. aureus ATCC 33592 (ORSA); assay: as above; format: cell-based; conditions: for DT (detection time): Mueller-Hinton agar, without oxacillin 5.3 h
Procedure: as §1

[4] = tested on: clinical S. aureus isolates, ORSA; assay: Oxacillin susceptibility test of clinical isolates by the impedance method; format: cell-based; conditions: for DT in h on Mueller-Hinton agar With Oxacillin (2 μg/ml), mean ± standard deviation: without oxacillin 5.7 ± 0.6 h
Procedure: (§2) Susceptibility tests of the 235 clinical isolates of S. aureus were performed in a similar way to that used for the ATCC strains, except that only one concentration (2 μg/ml) of oxacillin in Mueller-Hinton agar was used. A negative control (Mueller-Hinton agar without oxacillin) was included for each strain tested. A strain was designated as OSSA if, in the presence of the antibiotic, there was no DT obtained within an incubation period of 24 h. A strain was designated as ORSA if, in the presence of the antibiotic, the DT was not affected or the delay in DT was less than 3 h as compared to the negative control. S. aureus ATCC 29213 (OSSA) and ATCC 33592 (ORSA) were run at the same time as controls. Strains showing discrepant results were reconfirmed by the oxacillin screen agar (Becton Dickinson Microbiology Systems, Cockysville, Md.).

[5] = tested on: clinical S. aureus isolates, OSSA; assay: as above; format: cell-based
Procedure: as §2

[6] = tested on: blood cultures containing ORSA; assay: Direct detection in blood cultures by the impedance method; format: cell-based, S. aureus; conditions: oxacillin 2 μg/ml; 36 of 38 vials containing ORSA
Procedure: (§3) Blood specimens were collected at the National Cheng Kung University Hospital during a period in 1996. The BACTEC NR6A and NR7A vials (containing about 30 ml of liquid media; Becton Dickinson Microbiology Systems) were normally inoculated with 3 to 5 ml of blood from the patients, inserted into a BACTEC NR660 instrument (Becton Dickinson Microbiology Systems), and incubated at 37° C. A small aliquot (0.1 to 0.2 ml) of the culture broth was drawn from the vials showing growth of gram-positive cocci (as determined by Gram stain), heated in a boiling water bath for 15 min, and tested for thermonuclease activities on slides coated with toluidine blue-DNA agar (Bennett et al., Staphylococcus aureus, pp. 161-166, In: Bacteriological Analytical Manual, 7th ed. Association of Official Analytical Chemists International, Arlington, Va., 1992). A positive thermonuclease reaction was the development of a pink halo extending at least 1 mm from the periphery of the reaction well. […] The modules were incubated at 37° C. and DTs of the wells were automatically determined by the instrument or by manual inspection of the impedance curves. A vial was designated as ORSA or OSSA positive according to the same parameters set for pure stock cultures. […]

[7] = tested on: blood cultures containing OSSA; assay: as above; format: cell-based, S. aureus; conditions: oxacillin 2 μg/ml; 57 of 58 blood cultures containing OSSA; within an incubation period of 24 h
Procedure: as §3

[8] = oxacillin concentration as high as 128 μg/ml
[9] = oxacillin concentration as high as 64 yg/ml

SMILES: Cc1onc(-c2ccccc2)c1C(=O)N[C@@H]1C(=O)N2[C@@H]1SC(C)(C)[C@@H]2C(=O)O [oxacillin]
- DT (detection time) ([1]; oxacillin 0.063 μg per ml, without oxacillin 4.0 h): 4.1 h
- increase in DT ([1]; oxacillin 0.063 μg/ml versus no oxacillin): 0.1 h
- DT (detection time) ([1]; oxacillin 0.125 μg per ml, without oxacillin 4.0 h): 4.1 h
- increase in DT ([1]; oxacillin 0.125 μg/ml versus no oxacillin): 0.1 h
- DT (detection time) ([1]; oxacillin 0.25 μg per ml, within 16 hours): no DT
- growth ([1]; oxacillin 0.25 μg/ml): almost completely inhibited
- DT (detection time) ([2]; oxacillin 32 μg per ml): 6.2 h
- DT (detection time) ([2]; oxacillin 64 μg per ml): 6.8 h
- DT (detection time) ([2]; oxacillin 128 μg per ml): 12.1 h
- growth [2, 8]: not inhibited to a large extent
- growth [2, 9]: only slightly inhibited
- DT (detection time) ([3]; oxacillin 32 μg per ml): 6.3 h
- DT (detection time) ([3]; oxacillin 64 μg per ml): 7.0 h
- DT (detection time) ([3]; oxacillin 128 μg per ml): 9.3 h
- growth [3, 8]: not inhibited to a large extent
- growth [3, 9]: only slightly inhibited
- DT in h (range) on Mueller-Hinton agar With Oxacillin (2 μg/ml) ([4]; 141 ORSA strains, range over strains): 4.7 to 9.1 h
- DT in h on Mueller-Hinton agar With Oxacillin (2 μg/ml), mean ± standard deviation ([4]; 141 ORSA strains): 6.0 ± 0.7 h
- DT in h on Mueller-Hinton agar With Oxacillin (2 μg/ml), mean ± standard deviation ([4]; 141 ORSA strains, listed as Oxacillin): 6.0 ± 0.7 h
- delay in DTs compared to negative controls ([4]; oxacillin 2 μg/ml, 141 of 149 ORSA strains (DTs equal to controls or delayed)): less than 3 h
- DT behind the negative control ([4]; oxacillin 2 μg/ml, false-negative strain no. 127): 17 h
- DT ([4]; oxacillin 2 μg/ml, false-negative strain no. 127, negative control DT=5.7 h): 22.7 h
- DT ([4]; oxacillin 2 μg/ml, seven of the eight false-negative strains, within an incubation period of 24 h): no DT
- DT in h (range) on Mueller-Hinton agar With Oxacillin (2 μg/ml) ([5]; 84 correctly identified of 86 OSSA strains, 24 h incubation): —^c (—, DT was not found within an incubation period of 24 h.)
- DT ([5]; oxacillin 2 μg/ml, 84 of the 86 OSSA strains, within an incubation period of 24 h): no DT
- average DT [6]: 5.5 h
- DT [7]: no DTs
